Experimental data as given in patent publication US20230150974A1 (Foghorn Therapeutics Inc., priority 2020, published 2023).

Experiments:
[1] = target: T1, HiBiT-BRM (Homo sapiens, UniProt P51531); assay: HiBiT-BRM cell-based degradation assay (Nano-Glo HiBiT Lytic Detection); conditions: HeLa cells expressing HiBiT-BRM, 24 h; for DC50: read-out: BRM HiBit Degradation IC50
T1 construct: expressed in transfected cells
Outline: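 HeLa cells stably expressing HiBiT-tagged BRM were treated for 24 h, then lysed with LgBiT-containing Nano-Glo reagent and luminescence read. % degradation scaled between DMSO (high control) and 2 μM reference BRM/BRG1 degrader (low control).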

[2] = target: T2, HiBit-BRG1 (Homo sapiens, UniProt P51532); assay: HiBit-BRG1 cell-based degradation assay (Nano-Glo HiBiT Lytic Detection); conditions: HeLa cells expressing HiBit-BRG1 and LgBit, 24 h; for DC50: read-out: BRG1 HiBit Degradation IC50; for Dmax: read-out: BRG1 HiBit Degradation Maximum (%)
T2 construct: expressed in transfected cells
Outline: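 Percent degradation derived from lytic HiBiT signal, normalized to DMSO-treated cells and to cells given 2 μM of a known BRM/BRG1 degrader. The HeLa line stably expressed HiBit-BRG1 and LgBit; treatment lasted 24 h at 5000 cells per well.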

T1 sequence (P51531 whole entry): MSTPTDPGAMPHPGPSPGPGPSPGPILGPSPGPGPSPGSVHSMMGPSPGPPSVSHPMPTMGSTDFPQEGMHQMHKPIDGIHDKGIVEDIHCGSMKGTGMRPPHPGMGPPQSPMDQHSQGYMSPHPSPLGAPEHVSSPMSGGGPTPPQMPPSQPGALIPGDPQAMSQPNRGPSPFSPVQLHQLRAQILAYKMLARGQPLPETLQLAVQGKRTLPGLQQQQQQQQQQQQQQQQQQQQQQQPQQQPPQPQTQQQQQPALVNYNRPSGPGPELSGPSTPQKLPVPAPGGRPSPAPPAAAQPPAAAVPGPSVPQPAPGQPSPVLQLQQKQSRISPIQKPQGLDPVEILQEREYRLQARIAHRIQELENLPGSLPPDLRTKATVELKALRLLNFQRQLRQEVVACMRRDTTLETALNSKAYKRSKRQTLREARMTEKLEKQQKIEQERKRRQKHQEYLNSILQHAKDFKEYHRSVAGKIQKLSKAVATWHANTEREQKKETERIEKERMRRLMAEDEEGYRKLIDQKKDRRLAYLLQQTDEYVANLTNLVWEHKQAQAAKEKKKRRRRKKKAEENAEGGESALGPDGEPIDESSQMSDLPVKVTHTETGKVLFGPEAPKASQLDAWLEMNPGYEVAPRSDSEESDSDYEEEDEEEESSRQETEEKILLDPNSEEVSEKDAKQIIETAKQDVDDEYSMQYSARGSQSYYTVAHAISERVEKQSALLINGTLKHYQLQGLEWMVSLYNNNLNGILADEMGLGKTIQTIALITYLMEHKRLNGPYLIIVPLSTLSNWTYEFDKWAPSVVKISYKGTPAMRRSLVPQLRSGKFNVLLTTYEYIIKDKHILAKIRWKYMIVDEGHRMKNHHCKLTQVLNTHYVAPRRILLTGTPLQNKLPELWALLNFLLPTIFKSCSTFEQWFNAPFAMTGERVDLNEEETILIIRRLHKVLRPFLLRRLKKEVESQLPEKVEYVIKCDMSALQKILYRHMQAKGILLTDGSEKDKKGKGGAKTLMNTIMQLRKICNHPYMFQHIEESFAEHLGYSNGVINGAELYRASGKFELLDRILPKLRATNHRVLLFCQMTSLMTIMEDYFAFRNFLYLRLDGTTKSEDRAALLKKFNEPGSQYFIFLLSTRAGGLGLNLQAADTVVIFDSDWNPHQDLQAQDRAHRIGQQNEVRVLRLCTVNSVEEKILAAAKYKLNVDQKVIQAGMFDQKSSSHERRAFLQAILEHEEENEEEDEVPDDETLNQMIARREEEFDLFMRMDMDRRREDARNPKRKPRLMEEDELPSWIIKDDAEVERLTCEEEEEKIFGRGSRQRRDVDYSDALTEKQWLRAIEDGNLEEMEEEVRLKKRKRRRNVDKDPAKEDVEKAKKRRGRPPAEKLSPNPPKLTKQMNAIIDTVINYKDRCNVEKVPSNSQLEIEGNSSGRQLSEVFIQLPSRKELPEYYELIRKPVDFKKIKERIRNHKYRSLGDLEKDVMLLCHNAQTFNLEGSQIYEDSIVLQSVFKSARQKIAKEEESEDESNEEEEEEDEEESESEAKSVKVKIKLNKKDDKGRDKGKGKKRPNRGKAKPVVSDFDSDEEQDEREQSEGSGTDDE
T2 sequence (P51532 whole entry): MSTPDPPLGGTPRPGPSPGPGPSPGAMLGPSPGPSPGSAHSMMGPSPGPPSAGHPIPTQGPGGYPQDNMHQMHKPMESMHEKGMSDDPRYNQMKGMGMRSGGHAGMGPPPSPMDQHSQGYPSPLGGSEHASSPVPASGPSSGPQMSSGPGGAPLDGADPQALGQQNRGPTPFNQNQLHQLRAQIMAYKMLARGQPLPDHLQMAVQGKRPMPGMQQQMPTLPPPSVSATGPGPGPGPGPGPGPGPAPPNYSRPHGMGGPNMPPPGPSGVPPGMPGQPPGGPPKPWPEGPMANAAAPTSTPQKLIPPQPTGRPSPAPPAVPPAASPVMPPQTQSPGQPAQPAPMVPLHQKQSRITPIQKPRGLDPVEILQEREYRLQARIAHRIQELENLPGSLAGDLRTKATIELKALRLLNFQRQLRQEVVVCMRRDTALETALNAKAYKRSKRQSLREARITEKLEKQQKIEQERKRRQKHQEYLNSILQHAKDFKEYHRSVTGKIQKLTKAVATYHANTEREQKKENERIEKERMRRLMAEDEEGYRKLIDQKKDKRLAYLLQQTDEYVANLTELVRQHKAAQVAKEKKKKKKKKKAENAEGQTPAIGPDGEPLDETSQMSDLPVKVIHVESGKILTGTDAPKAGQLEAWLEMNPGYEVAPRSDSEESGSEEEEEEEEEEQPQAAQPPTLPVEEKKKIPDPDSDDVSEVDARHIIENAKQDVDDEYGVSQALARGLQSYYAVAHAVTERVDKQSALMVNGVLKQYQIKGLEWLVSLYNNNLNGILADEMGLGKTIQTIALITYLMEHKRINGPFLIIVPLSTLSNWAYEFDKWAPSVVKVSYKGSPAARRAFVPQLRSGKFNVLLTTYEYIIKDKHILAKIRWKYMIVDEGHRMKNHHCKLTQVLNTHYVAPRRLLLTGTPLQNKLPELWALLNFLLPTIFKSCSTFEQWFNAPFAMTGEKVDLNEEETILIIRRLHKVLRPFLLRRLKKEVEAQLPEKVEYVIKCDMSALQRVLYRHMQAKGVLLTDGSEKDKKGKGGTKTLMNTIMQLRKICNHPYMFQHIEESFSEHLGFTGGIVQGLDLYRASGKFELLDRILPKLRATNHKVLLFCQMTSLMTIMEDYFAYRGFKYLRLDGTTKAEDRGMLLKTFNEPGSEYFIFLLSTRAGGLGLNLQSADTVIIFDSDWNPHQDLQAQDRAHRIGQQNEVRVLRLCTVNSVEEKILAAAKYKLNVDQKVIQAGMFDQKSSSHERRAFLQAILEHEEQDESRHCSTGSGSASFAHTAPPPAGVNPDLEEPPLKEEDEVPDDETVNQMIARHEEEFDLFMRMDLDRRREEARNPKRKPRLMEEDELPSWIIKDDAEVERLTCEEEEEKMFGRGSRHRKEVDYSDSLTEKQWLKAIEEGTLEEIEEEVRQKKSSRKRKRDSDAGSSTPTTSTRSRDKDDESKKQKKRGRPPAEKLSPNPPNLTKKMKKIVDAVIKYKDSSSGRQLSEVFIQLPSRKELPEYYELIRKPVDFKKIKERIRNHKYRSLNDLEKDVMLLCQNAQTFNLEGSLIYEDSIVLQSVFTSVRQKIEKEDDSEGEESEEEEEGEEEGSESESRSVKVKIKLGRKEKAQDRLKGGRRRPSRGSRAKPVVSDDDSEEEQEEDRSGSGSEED

DC50 [1] | DC50 [2] | Dmax [2] | SMILES | BRM HiBit Degradation Maximum (%) [1]
> 1 µM | > 1 µM | < 50% | Nc1nnc(-c2ccccc2O)cc1N1CCN(CC(=O)NCCCCS(=O)(=O)CCCNc2cccc3c2C(=O)N(C2CCC(=O)NC2=O)C3=O)CC1 (stereo not drawn) [Compound 80, 2-[4-[3-amino-6-(2-hydroxyphenyl)pyridazin-4-yl]piperazin-1-yl]-N-[4-(3-[[2-(2,6-dioxopiperidin-3-yl)-1,3-dioxoisoindol-4-yl]amino]propanesulfonyl)butyl]acetamide] | C (“C” indicates maximum degradation <50%)
> 1 µM | > 1 µM | < 50% | Nc1nnc(-c2ccccc2O)cc1N1CCN(CC(=O)N2CC(COc3ccc4c(c3)C(=O)N(C3CCC(=O)NC3=O)C4=O)C2)CC1 (stereo not drawn) [Compound 81, 5-((1-(2-(4-(3-amino-6-(2-hydroxyphenyl)pyridazin-4-yl)piperazin-1-yl)acetyl)azetidin-3-yl)methoxy)-2-(2,6-dioxopiperidin-3-yl)isoindoline-1,3-dione] | C (“C” indicates maximum degradation <50%)
> 1 µM | > 1 µM | < 50% | Nc1nnc(-c2ccccc2O)cc1N1CCN(CC(=O)NC2CCN(CCOc3ccc4c(c3)C(=O)N(C3CCC(=O)NC3=O)C4=O)CC2)CC1 (stereo not drawn) [Compound 82, 2-[4-[3-amino-6-(2-hydroxyphenyl)pyridazin-4-yl]piperazin-1-yl]-N-[1-(2-[[2-(2,6-dioxopiperidin-3-yl)-1,3-dioxoisoindol-5-yl]oxy]ethyl)piperidin-4-yl]acetamide] | C (“C” indicates maximum degradation <50%)
> 0.1 µM | > 1 µM | < 50% | Nc1nnc(-c2ccccc2O)cc1N1CCN(CC(=O)NCCCCCCCCNc2ccc3c(c2)C(=O)N(C2CCC(=O)NC2=O)C3=O)CC1 (stereo not drawn) [Compound 83, 2-[4-[3-amino-6-(2-hydroxyphenyl)pyridazin-4-yl]piperazin-1-yl]-N-(8-[[2-(2,6-dioxopiperidin-3-yl)-1,3-dioxoisoindol-5-yl]amino]octyl)acetamide] | B (“B” indicates maximum degradation ≥50%)
> 1 µM | > 1 µM | < 50% | Nc1nnc(-c2ccccc2O)cc1N1CCN(CCNC(=O)CCCOc2cccc3c2C(=O)N(C2CCC(=O)NC2=O)C3=O)CC1 (stereo not drawn) [Compound 84, N-(2-(4-(3-amino-6-(2-hydroxyphenyl)pyridazin-4-yl)piperazin-1-yl)ethyl)-4-((2-(2,6-dioxopiperidin-3-yl)-1,3-dioxoisoindolin-4-yl)oxy)butanamide] | C (“C” indicates maximum degradation <50%)
> 1 µM | > 1 µM | < 50% | Cc1ncsc1-c1ccc(CNC(=O)[C@@H]2C[C@@H](O)CN2C(=O)[C@@H](NC(=O)COCCOCCOCCNC(=O)CN2CCN(c3cc(-c4ccccc4O)nnc3N)CC2)C(C)(C)C)cc1 [Compound 86, (2S,4R)-1-[(2S)-2-[2-(2-[2-[2-(2-[4-[3-amino-6-(2-hydroxyphenyl)pyridazin-4-yl]piperazin-1-yl]acetamido)ethoxy]ethoxy]ethoxy)acetamido]-3,3-dimethylbutanoyl]-4-hydroxy-N-[[4-(4-methyl-1,3-thiazol-5-yl)phenyl]methyl]pyrrolidine-2-carboxamide] | C (“C” indicates maximum degradation <50%)
> 1 µM | > 1 µM | > 50% | Nc1nnc(-c2ccccc2O)cc1N1CCN(CC(=O)NCCCCCNc2ccc3c(c2)C(=O)N(C2CCC(=O)NC2=O)C3=O)CC1 (stereo not drawn) [Compound 87, 2-[4-[3-amino-6-(2-hydroxyphenyl)pyridazin-4-yl]piperazin-1-yl]-N-(5-[[2-(2,6-dioxopiperidin-3-yl)-1,3-dioxo-2,3-dihydro-1H-isoindol-5-yl]amino]pentyl)acetamide; formic acid] | B (“B” indicates maximum degradation ≥50%)
> 1 µM | > 1 µM | < 50% | Nc1nnc(-c2ccccc2O)cc1N1CCN(CCNC(=O)CCCCCCCCCCNc2cccc3c2C(=O)N(C2CCC(=O)NC2=O)C3=O)CC1 (stereo not drawn) [Compound 88, N-(2-[4-[3-amino-6-(2-hydroxyphenyl)pyridazin-4-yl]piperazin-1-yl]ethyl)-11-[[2-(2,6-dioxopiperidin-3-yl)-1,3-dioxoisoindol-4-yl]amino]undecanamide] | C (“C” indicates maximum degradation <50%)
> 1 µM | > 1 µM | < 50% | Nc1nnc(-c2ccccc2O)cc1N1CCN(CCNC(=O)CCCCOc2cccc3c2C(=O)N(C2CCC(=O)NC2=O)C3=O)CC1 (stereo not drawn) [Compound 89, N-(2-[4-[3-amino-6-(2-hydroxyphenyl)pyridazin-4-yl]piperazin-1-yl]ethyl)-5-[[2-(2,6-dioxopiperidin-3-yl)-1,3-dioxoisoindol-4-yl]oxy]pentanamide] | C (“C” indicates maximum degradation <50%)
> 1 µM | > 1 µM | < 50% | Nc1nnc(-c2ccccc2O)cc1N1CCN(CCNC(=O)CCCCCCCOc2cccc3c2C(=O)N(C2CCC(=O)NC2=O)C3=O)CC1 (stereo not drawn) [Compound 90, N-(2-[4-[3-amino-6-(2-hydroxyphenyl)pyridazin-4-yl]piperazin-1-yl]ethyl)-8-[[2-(2,6-dioxopiperidin-3-yl)-1,3-dioxo-2,3-dihydro-1H-isoindol-4-yl]oxy]octanamide] | C (“C” indicates maximum degradation <50%)
> 1 µM | > 1 µM | < 50% | Nc1nnc(-c2ccccc2O)cc1N1CCN(CCNC(=O)CCOCCOCCNc2ccc3c(c2)C(=O)N(C2CCC(=O)NC2=O)C3=O)CC1 (stereo not drawn) [Compound 91, N-(2-[4-[3-amino-6-(2-hydroxyphenyl)pyridazin-4-yl]piperazin-1-yl]ethyl)-3-[2-(2-[[2-(2,6-dioxopiperidin-3-yl)-1,3-dioxo-2,3-dihydro-1H-isoindol-5-yl]amino]ethoxy)ethoxy]propanamide] | C (“C” indicates maximum degradation <50%)
> 1 µM | > 1 µM | < 50% | Nc1nnc(-c2ccccc2O)cc1N1CCN(CCNC(=O)CCCCCCCCNc2ccc3c(c2)C(=O)N(C2CCC(=O)NC2=O)C3=O)CC1 (stereo not drawn) [Compound 92] | C (“C” indicates maximum degradation <50%)
> 1 µM | > 1 µM | < 50% | Nc1nnc(-c2ccccc2O)cc1N1CCN(CCNC(=O)CCOCCOCCNc2cccc3c2C(=O)N(C2CCC(=O)NC2=O)C3=O)CC1 (stereo not drawn) [Compound 93] | C (“C” indicates maximum degradation <50%)
> 1 µM | > 1 µM | < 50% | Cc1ncsc1-c1ccc(CNC(=O)[C@@H]2C[C@@H](O)CN2C(=O)[C@@H](NC(=O)CCCCCCCNC(=O)CN2CCN(c3cc(-c4ccccc4O)nnc3N)CC2)C(C)(C)C)cc1 [Compound 94, (2S,4R)-1-((S)-2-(8-(2-(4-(3-amino-6-(2-hydroxyphenyl)pyridazin-4-yl)piperazin-1-yl)acetamido)octanamido)-3,3-dimethylbutanoyl)-4-hydroxy-N-(4-(4-methylthiazol-5-yl)benzyl)pyrrolidine-2-carboxamide] | A (“A” indicates maximum degradation ≥75%)
> 1 µM | > 1 µM | < 50% | Nc1nnc(-c2ccccc2O)cc1N1CCN(CC(=O)NCCCCCCCCNc2cccc3c2C(=O)N(C2CCC(=O)NC2=O)C3=O)CC1 (stereo not drawn) [Compound 95, 2-(4-(3-amino-6-(2-hydroxyphenyl)pyridazin-4-yl)piperazin-1-yl)-N-(8-((2-(2,6-dioxopiperidin-3-yl)-1,3-dioxoisoindolin-4-yl)amino)octyl)acetamide] | C (“C” indicates maximum degradation <50%)
> 1 µM | > 1 µM | < 50% | CN(CCNC(=O)CN1CCN(c2cc(-c3ccccc3O)nnc2N)CC1)CCNc1cccc2c1C(=O)N(C1CCC(=O)NC1=O)C2=O (stereo not drawn) [Compound 96, 2-(4-(3-amino-6-(2-hydroxyphenyl)pyridazin-4-yl)piperazin-1-yl)-N-(2-((2-((2-(2,6-dioxopiperidin-3-yl)-1,3-dioxoisoindolin-4-yl)amino)ethyl)(methyl)amino)ethyl)acetamide] | C (“C” indicates maximum degradation <50%)
> 1 µM | > 1 µM | < 50% | Nc1nnc(-c2ccccc2O)cc1N1CCN(CCNC(=O)CCCCCCCCNc2cccc3c2C(=O)N(C2CCC(=O)NC2=O)C3=O)CC1 (stereo not drawn) [Compound 97, N-(2-[4-[3-amino-6-(2-hydroxyphenyl)pyridazin-4-yl]piperazin-1-yl]ethyl)-9-[[2-(2,6-dioxopiperidin-3-yl)-1,3-dioxoisoindol-4-yl]amino]nonanamide] | C (“C” indicates maximum degradation <50%)
> 1 µM | > 1 µM | < 50% | Nc1nnc(-c2ccccc2O)cc1N1CCN(CCNC(=O)CCCCCCCCCNc2cccc3c2C(=O)N(C2CCC(=O)NC2=O)C3=O)CC1 (stereo not drawn) [Compound 98, N-(2-[4-[3-amino-6-(2-hydroxyphenyl)pyridazin-4-yl]piperazin-1-yl]ethyl)-10-[[2-(2,6-dioxopiperidin-3-yl)-1,3-dioxo-2,3-dihydro-1H-isoindol-4-yl]amino]decanamide] | C (“C” indicates maximum degradation <50%)
